Experimental data published in publication PMC6268968 (Molecules, 2012).

molecular target: T1, Acetylcholinesterase (Electrophorus electricus, UniProt O42275); assay: Ellman spectrophotometric assay (acetylthiocholine/DTNB, […] nm); assay type: biochemical
T1 construct: gene ache
T1 sequence (O42275 24-633): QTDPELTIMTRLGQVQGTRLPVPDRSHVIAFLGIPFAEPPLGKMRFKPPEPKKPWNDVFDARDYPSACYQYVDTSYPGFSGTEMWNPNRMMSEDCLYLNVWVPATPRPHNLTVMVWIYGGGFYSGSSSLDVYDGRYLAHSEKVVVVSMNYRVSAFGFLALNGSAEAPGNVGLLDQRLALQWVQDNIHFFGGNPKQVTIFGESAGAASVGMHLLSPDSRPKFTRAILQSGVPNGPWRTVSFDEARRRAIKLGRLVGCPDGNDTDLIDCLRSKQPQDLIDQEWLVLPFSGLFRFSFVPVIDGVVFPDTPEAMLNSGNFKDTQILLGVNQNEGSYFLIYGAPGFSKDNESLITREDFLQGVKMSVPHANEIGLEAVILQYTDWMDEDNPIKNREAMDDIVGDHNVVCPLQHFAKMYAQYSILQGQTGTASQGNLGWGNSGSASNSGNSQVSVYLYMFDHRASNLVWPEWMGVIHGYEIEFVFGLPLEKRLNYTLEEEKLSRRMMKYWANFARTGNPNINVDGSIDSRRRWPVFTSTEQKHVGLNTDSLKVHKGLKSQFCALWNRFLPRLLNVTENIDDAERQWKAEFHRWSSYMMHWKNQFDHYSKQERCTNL

SMILES	IC50
COc1cc(/C=C/C(=O)NCCc2ccc(O)cc2)ccc1O [compound 2, trans-N-feruloyltyramine]	86 µM
O=C(/C=C/c1ccc(O)c(O)c1)NCCc1ccc(O)cc1 [compound 3, trans-N-caffeoyltyramine]	84.3 µM
O=C(/C=C/c1ccc(O)cc1)NCCc1ccc(O)cc1 [compound 1, trans-N-coumaroyltyramine]	98.3 µM
